Structures are written as SMILES. Like-named read-outs stand apart in the source and are kept apart here.

The term inhibition denotes the drop in the measured response relative to a control, in per cent. Broadly, the Ki is the equilibrium dissociation constant of an inhibitor or competing ligand from its target. One may read the IC50 as the concentration that inhibits the measured activity by half.

This experiment addresses KAT6A (Homo sapiens (Human), UniProt Q92794). The experiment can be described thus: KAT assay protocol (SAMDI mass spectrometry), KAT6A. It is filed as biochemical. The conditions noted are these: for inhibition at 1 µM: 1 μM compound; for Ki: 10 μM AcCoA, Morrison equation; for IC50: 1 μM AcCoA. The procedure:
Biological Assay Section 1 KAT Assay Protocol:
A. Compound Preparation • 1. Prepare 10 mM stock solutions in 100% DMSO from solid material • 2. Serial dilute 10 mM, 1 mM or 0.1 mM compound stocks 3-fold in 100% DMSO for 11-point dose response
B. Reagent Preparation • 1. Prepare 1× assay buffer containing 10 mM Tris HCL pH 8.0, 2.5 mM NaCl, 0.5 mM EDTA, 0.005% BSG and 0.02% Tween-20 • 2. Dilute Histone peptide (CPC Scientific) and AcCoA (Sigma) together in assay buffer to 2×. • 3. Dilute KAT enzyme in assay buffer to 2×.
C. Enzyme Reaction • 1. Final reaction conditions for each KAT assay in a 20 ul assay reaction volume: • i. […] Add 0.5 ul of diluted compound to the assay plate (384-well V-bottom polypropylene plates) or 0.5 ul of DMSO for control wells. • 3. Add 10 ul of 2× Histone peptide/2× AcCoA mix to the assay plate. • 4. Add 10 ul of 2× enzyme to the assay plate. • 5. Stop the reaction after the indicated time with the addition of 2 ul of 5% formic acid • 6. Each reaction was analyzed using self-assembled monolayer desorption/ionization time-of-flight mass spectrometry (Mrksich, Milan (2008) Mass Spectrometry of Self-Assembled Monolayers: A New Tool for Molecular Surface Science ACS Nano 2008 2 (1), 7-18; SAMDI Tech, Inc. (Chicago, IL)). • 7. Area under the curve (AUC) for both substrate and product peaks was determined for KAT6A at M.W. 2723 [Substrate+H]^+ and 2765 [Product+H]^+ with a +/−1 Da tolerance, respectively. • 8. Percent conversion to product was calculated by: AUCProduct/(AUCSubstrate+AUCProduct).
D. Data Analysis • 1. IC50 values were determined by fitting the % conversion at each inhibitor concentration to the 4-parameter IC50 equation using Pfizer proprietary curve fitting software. • 2. Ki values were determined by fitting the % conversion at each inhibitor concentration to the Morrison equation for tightbinding competitive inhibitors using Pfizer proprietary curve fitting software. Materials
KAT enzymes were expressed using a baculovirus expression system and purified at Pfizer, La Jolla. Histone H3 (1-21) peptide ([…], SEQ ID NO:3) was purchased from CPC Scientific (Sunnyvale, CA). Acetyl coenzyme A was purchased from Sigma-Aldrich (St. Louis, MO). All other biochemical reagents were purchased from Sigma-Aldrich or ThermoFisher Scientific (Waltham, MA).
[…] 10 ul of 2× Histone peptide/AcCoA mix was added to a 384-well V-bottom polypropylene assay plate containing 0.5 ul of serially diluted test compound in 100% dimethyl sulfoxide (DMSO). To start the reaction, 10 ul of 2× enzyme solution was added to the assay plate. KAT assays were terminated after 30-60 minutes with the addition of 2 ul of 5% formic acid. KAT6A used histone H3 (1-21) peptide. The final enzyme concentration for KAT6A was 15 nM. Each reaction was analyzed using self-assembled monolayer desorption/ionization time-of-flight mass spectrometry (Mrksich, Milan (2008) Mass Spectrometry of Self-Assembled Monolayers: A New Tool for Molecular Surface Science ACS Nano 2008 2 (1), 7-18; SAMDI Tech, Inc. (Chicago, IL)).
Area under the curve (AUC) for both substrate and product peaks was determined for KAT6A at M.W. 2723 [Substrate+H]^+ and 2765 [Product+H]^+ with a +/−1 Da tolerance, respectively. Percent conversion to product was calculated by: AUCProduct/(AUCSubstrate+AUCProduct). IC50 values were determined by fitting the % conversion at each inhibitor concentration to the 4-parameter IC50 equation using Pfizer proprietary curve fitting software. Ki values were determined by fitting the % conversion at each inhibitor concentration to the Morrison equation for tightbinding competitive inhibitors using Pfizer proprietary curve fitting software.

[1] abbreviates: read-out: KAT6A Ki at 10 μM AcCoA.

KAT6A, sequence (Q92794 whole entry): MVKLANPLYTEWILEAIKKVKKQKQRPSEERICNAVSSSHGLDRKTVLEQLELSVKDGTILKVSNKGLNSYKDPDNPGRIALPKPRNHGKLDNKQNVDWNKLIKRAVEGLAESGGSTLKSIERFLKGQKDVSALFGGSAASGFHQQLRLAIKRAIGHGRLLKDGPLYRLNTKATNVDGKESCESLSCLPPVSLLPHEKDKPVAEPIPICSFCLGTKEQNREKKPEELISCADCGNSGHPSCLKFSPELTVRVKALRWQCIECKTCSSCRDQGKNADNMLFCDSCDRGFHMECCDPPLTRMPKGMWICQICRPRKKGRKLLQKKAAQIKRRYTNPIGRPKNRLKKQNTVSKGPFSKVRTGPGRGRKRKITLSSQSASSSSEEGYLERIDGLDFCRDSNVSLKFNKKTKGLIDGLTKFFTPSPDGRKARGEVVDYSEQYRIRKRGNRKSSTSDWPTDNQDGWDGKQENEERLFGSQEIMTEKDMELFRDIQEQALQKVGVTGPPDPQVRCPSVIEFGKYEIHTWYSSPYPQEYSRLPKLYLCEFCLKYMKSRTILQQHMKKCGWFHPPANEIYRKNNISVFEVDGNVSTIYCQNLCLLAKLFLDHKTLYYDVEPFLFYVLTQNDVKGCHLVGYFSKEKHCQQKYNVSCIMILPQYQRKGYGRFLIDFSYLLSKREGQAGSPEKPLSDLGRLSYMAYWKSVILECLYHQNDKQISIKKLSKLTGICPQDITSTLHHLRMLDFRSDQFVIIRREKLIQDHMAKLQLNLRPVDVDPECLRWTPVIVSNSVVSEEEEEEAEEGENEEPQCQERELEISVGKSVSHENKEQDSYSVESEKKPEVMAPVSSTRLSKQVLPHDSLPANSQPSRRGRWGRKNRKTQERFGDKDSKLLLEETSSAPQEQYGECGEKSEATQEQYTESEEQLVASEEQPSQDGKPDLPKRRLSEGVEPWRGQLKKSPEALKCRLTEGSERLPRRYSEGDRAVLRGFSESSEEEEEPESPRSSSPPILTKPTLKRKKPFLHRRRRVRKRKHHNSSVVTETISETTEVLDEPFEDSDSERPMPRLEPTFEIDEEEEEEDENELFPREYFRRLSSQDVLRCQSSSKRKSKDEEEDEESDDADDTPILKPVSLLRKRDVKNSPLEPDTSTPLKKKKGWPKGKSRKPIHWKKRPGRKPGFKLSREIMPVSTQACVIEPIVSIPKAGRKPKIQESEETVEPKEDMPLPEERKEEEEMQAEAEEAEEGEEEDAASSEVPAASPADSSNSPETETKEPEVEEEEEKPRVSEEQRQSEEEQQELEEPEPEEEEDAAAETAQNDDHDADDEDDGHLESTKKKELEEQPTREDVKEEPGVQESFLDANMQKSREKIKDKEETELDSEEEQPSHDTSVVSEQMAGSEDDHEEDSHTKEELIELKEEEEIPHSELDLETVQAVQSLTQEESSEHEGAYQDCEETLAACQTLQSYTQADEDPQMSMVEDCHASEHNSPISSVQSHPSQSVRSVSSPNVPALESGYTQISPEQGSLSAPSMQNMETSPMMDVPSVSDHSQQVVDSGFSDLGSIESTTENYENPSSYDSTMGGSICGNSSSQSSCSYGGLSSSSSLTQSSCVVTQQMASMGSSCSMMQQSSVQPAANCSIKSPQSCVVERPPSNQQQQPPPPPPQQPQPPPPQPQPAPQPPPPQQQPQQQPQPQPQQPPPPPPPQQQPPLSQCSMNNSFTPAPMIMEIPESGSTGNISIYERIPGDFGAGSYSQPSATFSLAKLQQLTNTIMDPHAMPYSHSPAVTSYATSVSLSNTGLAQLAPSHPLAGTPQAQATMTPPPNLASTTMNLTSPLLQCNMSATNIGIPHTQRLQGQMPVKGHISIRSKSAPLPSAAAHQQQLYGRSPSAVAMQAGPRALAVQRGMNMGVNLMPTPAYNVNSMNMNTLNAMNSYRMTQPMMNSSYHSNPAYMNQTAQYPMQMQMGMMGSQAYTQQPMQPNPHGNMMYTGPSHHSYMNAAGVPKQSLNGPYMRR

`COc1cc(Cn2cccn2)cc2onc(NS(=O)(=O)C3CCCN(C(C)=O)C3)c12` (centres unmarked) [Example 97]: the inhibition at 1 µM amounted to 83%. Same read-out and setting: for `COc1cc(Cn2cccn2)cc2onc(NS(=O)(=O)C3CC(C)(C)C3)c12` [Example 84] the value was 62%; for `COc1cc(Cn2cccn2)cc2onc(NS(=O)(=O)C3CCC(F)(F)CC3)c12` [Example 51], 65%. As for `COc1cc(Cn2cccn2)cc2onc(NS(=O)(=O)CC3CCC(F)CC3)c12` (centres unmarked) [Example 8], the inhibition at 1 µM was found to be 77%. As to `COc1cc(Cn2cccn2)cc2onc(NS(=O)(=O)C3CCC(C)CC3)c12` (centres unmarked) [Example 82], the inhibition at 1 µM is 61%. For `COc1cc(Cn2cccn2)cc2onc(NS(=O)(=O)CC3C[C@@H]4[C@H](C3)C4(F)F)c12` (some centres unmarked) [Example 64], the inhibition at 1 µM was 92%. Further, for the setting “KAT6A Ki at 10 μM AcCoA”, affinity was put at a Ki of 28 nM. With `COc1cc(Cn2cccn2)cc2onc(NS(=O)(=O)C3CCC(=O)CC3)c12` [Example 80], the inhibition at 1 µM amounted to 60%. `COc1cc(Cn2cccn2)cc2onc(NS(=O)(=O)N(C)C3CCCCC3)c12` [Example 132]: the 50% inhibitory concentration (IC50) (KAT6A IC50 at 1 μM AcCoA) is 9 nM. For the setting “KAT6A Ki at 10 μM AcCoA”, this compound returned a Ki of 4 nM. As for `COc1cc(Cn2cccn2)cc2onc(NS(=O)(=O)C3CCCC3)c12` [Example 20], under setting [1], the Ki was determined as 36.5 nM.

As to `COc1cc(Cn2cccn2)cc2onc(NS(=O)(=O)CC3CCCCO3)c12` (single isomer, unassigned; (+)) [Example 1, (+)-N-{4-methoxy-6-[(1H-pyrazol-1-yl)methyl]-1,2-benzoxazol-3-yl}-1-(oxan-2-yl)methanesulfonamide], the inhibition at 1 µM was determined as 88%. The same compound showed an IC50 (KAT6A IC50 at 1 μM AcCoA) of 117 nM. As to `COc1cc(Cn2cccn2)cc2onc(NS(=O)(=O)CCC3CC3(F)F)c12` (centres unmarked) [Example 78], the inhibition at 1 µM turned out to be 77%. Besides, the Ki (KAT6A Ki at 10 μM AcCoA) came to 45.8 nM. With `CC[C@@H]1C[C@@H]1S(=O)(=O)Nc1noc2cc(Cn3cccn3)cc(OC)c12` [Example 26], the inhibition at 1 µM stood at 71%. On the same count and under the same terms, for `COc1cc(Cn2cccn2)cc2onc(NS(=O)(=O)[C@H]3CCCC[C@H]3OC)c12` [Example 83] the value was 85%; for `COc1cc(Cn2cccn2)cc2onc(NS(=O)(=O)CC3(C)CCOCC3)c12` [Example 118], 56%. As for `COc1cc(Cn2cccn2)cc2onc(NS(=O)(=O)[C@H]3C[C@@H]3c3ccc(F)cc3)c12` [Example 27], the Ki (KAT6A Ki at 10 μM AcCoA) stood at 13.8 nM. In the case of `COc1cc(Cn2cccn2)cc2onc(NS(=O)(=O)C3CCOCC3C)c12` (centres unmarked) [Example 96], the inhibition at 1 µM was determined as 58%. `COc1cc(Cn2cccn2)cc2onc(NS(=O)(=O)CC3CCCCO3)c12` (centres unmarked) [Example 101]: the inhibition at 1 µM was found to be 65%. On to `COc1cc(Cn2cccn2)cc2onc(NS(=O)(=O)[C@H]3CCC[C@H]3OC)c12` [Example 18], for which the inhibition at 1 µM came to 83%. Besides, the Ki under setting [1] was found to be 71.9 nM. Take `COc1cc(Cn2cccn2)cc2onc(NS(=O)(=O)CC3(OC)CCC3)c12` [Example 56]: the inhibition at 1 µM came out at 71%.

Regarding `COc1cc(Cn2cccn2)cc2onc(NS(=O)(=O)CC3(C(F)F)CCC3)c12` [Example 76], the inhibition at 1 µM was 90%. Still for that read-out and setting: for `COc1cc(Cn2cccn2)cc2onc(NS(=O)(=O)CC3CCC3(F)F)c12` (centres unmarked) [Example 79] the value was 106%. For the compound `COc1cc(Cn2cccn2)cc2onc(NS(=O)(=O)[C@H]3C[C@H]4CC[C@H]3C4)c12` [Example 25], the inhibition at 1 µM stood at 87%. The compound also showed a Ki (KAT6A Ki at 10 μM AcCoA) of 16.5 nM. Taken in the same sequence, the figures for `COc1cc(Cn2cccn2)cc2onc(NS(=O)(=O)C3CCOC(C)C3)c12` (centres unmarked) [Example 89] were 84% and 87.3 nM. On to `COc1cc(Cn2cccn2)cc2onc(NS(=O)(=O)CC3CCCC(F)C3)c12` (centres unmarked) [Example 54], for which the inhibition at 1 µM came to 82%.

Turning to `COc1cc(Cn2cccn2)cc2onc(NS(=O)(=O)CC3(OC(C)C)CCCO3)c12` (centres unmarked) [Example 122], the inhibition at 1 µM was found to be 85%. Moreover, for the setting “KAT6A IC50 at 1 μM AcCoA”, the IC50 turned out to be 38.4 nM. Where the note is “KAT6A Ki at 10 μM AcCoA”, this compound displayed a Ki of 14.9 nM.

For `COc1cc(Cn2cccn2)cc2onc(NS(=O)(=O)CC3CC3(F)F)c12` (centres unmarked) [Example 66], the inhibition at 1 µM was determined as 88%. Consider `COc1cc(Cn2cccn2)cc2onc(NS(=O)(=O)CC3CCC3)c12` [Example 17], for which the inhibition at 1 µM was 83%. Besides, the Ki (KAT6A Ki at 10 μM AcCoA) stood at 82.4 nM.

`COc1cc(Cn2cccn2)cc2onc(NS(=O)(=O)[C@H]3C[C@H]3c3ccccc3)c12` [Example 28]: the Ki under setting [1] was 14.2 nM.

Turning to `COc1cc(Cn2cccn2)cc2onc(NS(=O)(=O)CCCC3CCOC3)c12` (centres unmarked) [Example 106], the inhibition at 1 µM is 48%. The same measure, in the same setting: then `COc1cc(Cn2cccn2)cc2onc(NS(=O)(=O)C3CCC(C#N)C3)c12` (centres unmarked) [Example 16], with 81%; and `COc1cc(Cn2cccn2)cc2onc(NS(=O)(=O)CCC3CCCCO3)c12` (centres unmarked) [Example 108], with 67%. Still for that read-out and setting: for `COc1cc(Cn2cccn2)cc2onc(NS(=O)(=O)CC34CCC(CC3)C4)c12` [Example 67] the value was 104%.

As to `COc1cc(Cn2cccn2)cc2onc(NS(=O)(=O)CC3CC4CCC3C4)c12` (centres unmarked) [Example 30], the inhibition at 1 µM amounted to 98%. Further, under “KAT6A Ki at 10 μM AcCoA”, affinity was put at a Ki of 7.32 nM. In the case of `COc1cc(Cn2cccn2)cc2onc(NS(=O)(=O)CC3CN(C)CCO3)c12` (centres unmarked) [Example 119], the inhibition at 1 µM is 58%.

`COc1cc(Cn2cccn2)cc2onc(NS(=O)(=O)C[C@H]3C[C@@H](C)C3)c12` [Example 133] registered an IC50 (KAT6A IC50 at 1 μM AcCoA) of 40 nM. Turning to `COc1cc(Cn2cccn2)cc2onc(NS(=O)(=O)CC3(C(F)F)CC3)c12` [Example 50], the inhibition at 1 µM worked out at 87%. Same read-out and setting: for `COc1cc(Cn2cccn2)cc2onc(NS(=O)(=O)C3CCC(OC)CC3)c12` (centres unmarked) [Example 44] the value was 89%. `COc1cc(Cn2cccn2)cc2onc(NS(=O)(=O)CC3CCCCO3)c12` (single isomer, unassigned; (-)) [Example 2, (−)-N-{4-methoxy-6-[(1H-pyrazol-1-yl)methyl]-1,2-benzoxazol-3-yl}-1-(oxan-2-yl)methanesulfonamide]: 270 nM corresponded to half-maximal inhibition (KAT6A IC50 at 1 μM AcCoA) (IC50). As to `COc1cc(Cn2cccn2)cc2onc(NS(=O)(=O)CCCC3CC3)c12` [Example 58], the inhibition at 1 µM was determined as 87%. The same measure, in the same setting: for `COc1cc(Cn2cccn2)cc2onc(NS(=O)(=O)CC3(C(F)F)CCCC3)c12` [Example 65] the value was 95%; for `COc1cc(Cn2cccn2)cc2onc(NS(=O)(=O)C3CCCCCC3)c12` [Example 59], 48%. In the case of `COc1cc(Cn2cccn2)cc2onc(NS(=O)(=O)CC(C)C)c12` [Example 128], the IC50 (read-out: KAT6A IC50 at 1 μM AcCoA) was 128 nM. Regarding `COc1cc(Cn2cccn2)cc2onc(NS(=O)(=O)CC3CCCC4(CCC4)O3)c12` (centres unmarked) [Example 120], the inhibition at 1 µM was 35%. Still for that read-out and setting: for `COc1cc(Cn2cccn2)cc2onc(NS(=O)(=O)CCC3(C)CC3)c12` [Example 53] the value was 97%. Consider `COc1cc(Cn2cccn2)cc2onc(NS(=O)(=O)CCC3CC3)c12` [Example 23], for which the inhibition at 1 µM worked out at 92%. Moreover, where the note is “KAT6A Ki at 10 μM AcCoA”, the Ki is 31.6 nM.

In the case of `COc1cc(Cn2cccn2)cc2onc(NS(=O)(=O)CC3CC(C)C3)c12` (centres unmarked) [Example 60], the inhibition at 1 µM worked out at 42%.

For `COc1cc(Cn2cccn2)cc2onc(NS(=O)(=O)CC(C)C3CC3)c12` (centres unmarked) [Example 48], the inhibition at 1 µM worked out at 55%.

These data come from US12545669B2, “Cycloalkyl and heterocycloalkyl benzisoxazole sulfonamide derivatives” (Pfizer Inc., priority 2019, dated 2026).
